# Measured values taken from PubChem BioAssay (NCI).
#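 Results reflect a 48-hour exposure of cells in 96-well plates to compound at five concentrations. Abbreviation: GI50, concentration required for 50% inhibition of growth. The concentration for full growth arrest is given as TGI.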
# Tests used:
# Assay in all cases: DTP human tumour cell line panel, 48 h
# 786-0 renal = test system: 786-0 renal
# A498 renal = test system: A498 renal
# A549 NSCLC = test system: A549 NSCLC
# ACHN renal = test system: ACHN renal
# BT-549 breast = test system: BT-549 breast
# CAKI-1 renal = test system: CAKI-1 renal
# CCRF-CEM leukemia = test system: CCRF-CEM leukemia
# COLO 205 colon = test system: COLO 205 colon
# DU-145 prostate = test system: DU-145 prostate
# EKVX NSCLC = test system: EKVX NSCLC
# HCC-2998 colon = test system: HCC-2998 colon
# HCT-116 colon = test system: HCT-116 colon
# HCT-15 colon = test system: HCT-15 colon
# HL-60(TB) leukemia = test system: HL-60(TB) leukemia
# HOP-62 NSCLC = test system: HOP-62 NSCLC
# HS 578T breast = test system: HS 578T breast
# HT29 colon = test system: HT29 colon
# IGROV1 ovarian = test system: IGROV1 ovarian
# K-562 leukemia = test system: K-562 leukemia
# KM12 colon = test system: KM12 colon
# LOX IMVI melanoma = test system: LOX IMVI melanoma
# M14 melanoma = test system: M14 melanoma
# MALME-3M melanoma = test system: MALME-3M melanoma
# MCF7 breast = test system: MCF7 breast
# MDA-MB-231 breast = test system: MDA-MB-231 breast
# MDA-MB-435 = test system: MDA-MB-435
# MOLT-4 leukemia = test system: MOLT-4 leukemia
# NCI-H226 lung = test system: NCI-H226 lung
# NCI-H23 lung = test system: NCI-H23 lung
# NCI-H460 lung = test system: NCI-H460 lung
# NCI-H522 lung = test system: NCI-H522 lung
# NCI/ADR-RES ovarian = test system: NCI/ADR-RES ovarian
# OVCAR-3 ovarian = test system: OVCAR-3 ovarian
# OVCAR-4 ovarian = test system: OVCAR-4 ovarian
# OVCAR-5 ovarian = test system: OVCAR-5 ovarian
# OVCAR-8 ovarian = test system: OVCAR-8 ovarian
# PC-3 prostate = test system: PC-3 prostate
# RPMI-8226 leukemia = test system: RPMI-8226 leukemia
# RXF 393 renal = test system: RXF 393 renal
# SF-268 CNS = test system: SF-268 CNS
# SF-295 CNS = test system: SF-295 CNS
# SF-539 CNS = test system: SF-539 CNS
# SK-MEL-2 melanoma = test system: SK-MEL-2 melanoma
# SK-MEL-28 melanoma = test system: SK-MEL-28 melanoma
# SK-MEL-5 melanoma = test system: SK-MEL-5 melanoma
# SK-OV-3 ovarian = test system: SK-OV-3 ovarian
# SN12C renal = test system: SN12C renal
# SNB-19 CNS = test system: SNB-19 CNS
# SNB-75 CNS = test system: SNB-75 CNS
# SR leukemia = test system: SR leukemia
# SW-620 colon = test system: SW-620 colon
# T-47D breast = test system: T-47D breast
# TK-10 renal = test system: TK-10 renal
# U251 CNS = test system: U251 CNS
# UACC-257 melanoma = test system: UACC-257 melanoma
# UACC-62 melanoma = test system: UACC-62 melanoma
# UO-31 renal = test system: UO-31 renal
# HOP-92 NSCLC = test system: HOP-92 NSCLC
compound,measurement,setting,value
COc1ccc(-c2ccc(-c3ccc(C(=N)N)o3)o2)cc1,GI50,786-0 renal,2.22 µM
same,TGI,786-0 renal,5.64 µM
same,GI50,A498 renal,1.76 µM
same,TGI,A498 renal,7.48 µM
same,GI50,A549 NSCLC,1.49 µM
same,TGI,A549 NSCLC,4.79 µM
same,GI50,ACHN renal,1.8 µM
same,TGI,ACHN renal,4.2 µM
same,GI50,BT-549 breast,4.55 µM
same,TGI,BT-549 breast,16.9 µM
same,GI50,CAKI-1 renal,1.75 µM
same,TGI,CAKI-1 renal,4.29 µM
same,GI50,CCRF-CEM leukemia,1.84 µM
same,TGI,CCRF-CEM leukemia,6.75 µM
same,GI50,COLO 205 colon,1.25 µM
same,TGI,COLO 205 colon,2.94 µM
same,GI50,DU-145 prostate,1.91 µM
same,TGI,DU-145 prostate,4.86 µM
same,GI50,EKVX NSCLC,2.79 µM
same,TGI,EKVX NSCLC,14.5 µM
same,GI50,HCC-2998 colon,1.58 µM
same,TGI,HCC-2998 colon,3.23 µM
same,GI50,HCT-116 colon,1.07 µM
same,TGI,HCT-116 colon,3.01 µM
same,GI50,HCT-15 colon,0.675 µM
same,TGI,HCT-15 colon,4.72 µM
same,GI50,HL-60(TB) leukemia,1.23 µM
same,TGI,HL-60(TB) leukemia,3.16 µM
same,GI50,HOP-62 NSCLC,1.51 µM
same,TGI,HOP-62 NSCLC,4.51 µM
same,GI50,HS 578T breast,4.33 µM
same,TGI,HS 578T breast,18.4 µM
same,GI50,HT29 colon,0.484 µM
same,TGI,HT29 colon,2.82 µM
same,GI50,IGROV1 ovarian,1.73 µM
same,TGI,IGROV1 ovarian,7.03 µM
same,GI50,K-562 leukemia,0.487 µM
same,TGI,K-562 leukemia,2.12 µM
same,GI50,KM12 colon,0.585 µM
same,TGI,KM12 colon,6.73 µM
same,GI50,LOX IMVI melanoma,1.46 µM
same,TGI,LOX IMVI melanoma,2.96 µM
same,GI50,M14 melanoma,1.47 µM
same,TGI,M14 melanoma,3.87 µM
same,GI50,MALME-3M melanoma,3.97 µM
same,TGI,MALME-3M melanoma,19.1 µM
same,GI50,MCF7 breast,0.325 µM
same,TGI,MCF7 breast,1.57 µM
same,GI50,MDA-MB-231 breast,1.9 µM
same,TGI,MDA-MB-231 breast,4.28 µM
same,GI50,MDA-MB-435,0.293 µM
same,TGI,MDA-MB-435,1.12 µM
same,GI50,MOLT-4 leukemia,1.2 µM
same,TGI,MOLT-4 leukemia,4.3 µM
same,GI50,NCI-H226 lung,22 µM
same,TGI,NCI-H226 lung,42.8 µM
same,GI50,NCI-H23 lung,4.34 µM
same,TGI,NCI-H23 lung,18.3 µM
same,GI50,NCI-H460 lung,1.17 µM
same,TGI,NCI-H460 lung,3.28 µM
same,GI50,NCI-H522 lung,1.09 µM
same,TGI,NCI-H522 lung,3.48 µM
same,GI50,NCI/ADR-RES ovarian,1.88 µM
same,TGI,NCI/ADR-RES ovarian,10.1 µM
same,GI50,OVCAR-3 ovarian,0.924 µM
same,TGI,OVCAR-3 ovarian,2.74 µM
same,GI50,OVCAR-4 ovarian,2.22 µM
same,TGI,OVCAR-4 ovarian,12.2 µM
same,GI50,OVCAR-5 ovarian,2.42 µM
same,TGI,OVCAR-5 ovarian,5.88 µM
same,GI50,OVCAR-8 ovarian,3.19 µM
same,TGI,OVCAR-8 ovarian,11.4 µM
same,GI50,PC-3 prostate,1.86 µM
same,TGI,PC-3 prostate,7.07 µM
same,GI50,RPMI-8226 leukemia,2.68 µM
same,TGI,RPMI-8226 leukemia,7.85 µM
same,GI50,RXF 393 renal,2.12 µM
same,TGI,RXF 393 renal,8.81 µM
same,GI50,SF-268 CNS,2.04 µM
same,TGI,SF-268 CNS,7.22 µM
same,GI50,SF-295 CNS,1.68 µM
same,TGI,SF-295 CNS,3.51 µM
same,GI50,SF-539 CNS,1.88 µM
same,TGI,SF-539 CNS,3.63 µM
same,GI50,SK-MEL-2 melanoma,5.71 µM
same,TGI,SK-MEL-2 melanoma,21.7 µM
same,GI50,SK-MEL-28 melanoma,1.67 µM
same,TGI,SK-MEL-28 melanoma,3.66 µM
same,GI50,SK-MEL-5 melanoma,2.8 µM
same,TGI,SK-MEL-5 melanoma,12.1 µM
same,GI50,SK-OV-3 ovarian,5.63 µM
same,TGI,SK-OV-3 ovarian,18.7 µM
same,GI50,SN12C renal,2.02 µM
same,TGI,SN12C renal,4.59 µM
same,GI50,SNB-19 CNS,1.99 µM
same,TGI,SNB-19 CNS,11.3 µM
same,GI50,SNB-75 CNS,1.47 µM
same,TGI,SNB-75 CNS,6.81 µM
same,GI50,SR leukemia,0.417 µM
same,TGI,SR leukemia,2.79 µM
same,GI50,SW-620 colon,0.532 µM
same,TGI,SW-620 colon,2.43 µM
same,GI50,T-47D breast,1.53 µM
same,TGI,T-47D breast,4.07 µM
same,GI50,TK-10 renal,7.97 µM
same,TGI,TK-10 renal,21 µM
same,GI50,U251 CNS,1.74 µM
same,TGI,U251 CNS,4.12 µM
same,GI50,UACC-257 melanoma,11.1 µM
same,TGI,UACC-257 melanoma,24.7 µM
same,GI50,UACC-62 melanoma,1.29 µM
same,TGI,UACC-62 melanoma,3.05 µM
same,GI50,UO-31 renal,1.72 µM
same,TGI,UO-31 renal,3.79 µM
CN(C)CCCNC(=O)c1cc(NC(=O)c2cc(NC(=O)CCNS(=O)(=O)c3ccc4c(c3)C(=O)c3ccccc3C4=O)cn2C)cn1C,GI50,786-0 renal,> 100 µM
same,TGI,786-0 renal,> 100 µM
same,GI50,A498 renal,> 100 µM
same,TGI,A498 renal,> 100 µM
same,GI50,A549 NSCLC,> 100 µM
same,TGI,A549 NSCLC,> 100 µM
same,GI50,BT-549 breast,> 100 µM
same,TGI,BT-549 breast,> 100 µM
same,GI50,CAKI-1 renal,> 100 µM
same,TGI,CAKI-1 renal,> 100 µM
same,GI50,CCRF-CEM leukemia,> 100 µM
same,TGI,CCRF-CEM leukemia,> 100 µM
same,GI50,COLO 205 colon,> 100 µM
same,TGI,COLO 205 colon,> 100 µM
same,GI50,EKVX NSCLC,> 100 µM
same,TGI,EKVX NSCLC,> 100 µM
same,GI50,HCC-2998 colon,> 100 µM
same,TGI,HCC-2998 colon,> 100 µM
same,GI50,HL-60(TB) leukemia,> 100 µM
same,TGI,HL-60(TB) leukemia,> 100 µM
same,GI50,HOP-92 NSCLC,> 100 µM
same,TGI,HOP-92 NSCLC,> 100 µM
same,GI50,HS 578T breast,> 100 µM
same,TGI,HS 578T breast,> 100 µM
same,GI50,HT29 colon,> 100 µM
same,TGI,HT29 colon,> 100 µM
same,GI50,IGROV1 ovarian,> 100 µM
same,TGI,IGROV1 ovarian,> 100 µM
same,GI50,K-562 leukemia,> 100 µM
same,TGI,K-562 leukemia,> 100 µM
same,GI50,KM12 colon,> 100 µM
same,TGI,KM12 colon,> 100 µM
same,GI50,MCF7 breast,> 100 µM
same,TGI,MCF7 breast,> 100 µM
same,GI50,MDA-MB-231 breast,> 100 µM
same,TGI,MDA-MB-231 breast,> 100 µM
same,GI50,MDA-MB-435,> 100 µM
same,TGI,MDA-MB-435,> 100 µM
same,GI50,MOLT-4 leukemia,> 100 µM
same,TGI,MOLT-4 leukemia,> 100 µM
same,GI50,NCI-H226 lung,> 100 µM
same,TGI,NCI-H226 lung,> 100 µM
same,GI50,NCI-H23 lung,> 100 µM
same,TGI,NCI-H23 lung,> 100 µM
same,GI50,NCI-H460 lung,> 100 µM
same,TGI,NCI-H460 lung,> 100 µM
same,GI50,NCI-H522 lung,> 100 µM
same,TGI,NCI-H522 lung,> 100 µM
same,GI50,NCI/ADR-RES ovarian,> 100 µM
same,TGI,NCI/ADR-RES ovarian,> 100 µM
same,GI50,OVCAR-3 ovarian,> 100 µM
same,TGI,OVCAR-3 ovarian,> 100 µM
same,GI50,OVCAR-5 ovarian,> 100 µM
same,TGI,OVCAR-5 ovarian,> 100 µM
same,GI50,OVCAR-8 ovarian,> 100 µM
same,TGI,OVCAR-8 ovarian,> 100 µM
same,GI50,PC-3 prostate,> 100 µM
same,TGI,PC-3 prostate,> 100 µM
same,GI50,RPMI-8226 leukemia,> 100 µM
same,TGI,RPMI-8226 leukemia,> 100 µM
same,GI50,RXF 393 renal,> 100 µM
same,TGI,RXF 393 renal,> 100 µM
same,GI50,SF-268 CNS,> 100 µM
same,TGI,SF-268 CNS,> 100 µM
same,GI50,SF-295 CNS,> 100 µM
same,TGI,SF-295 CNS,> 100 µM
same,GI50,SF-539 CNS,> 100 µM
same,TGI,SF-539 CNS,> 100 µM
same,GI50,SK-MEL-2 melanoma,> 100 µM
same,TGI,SK-MEL-2 melanoma,> 100 µM
same,GI50,SK-MEL-5 melanoma,> 100 µM
same,TGI,SK-MEL-5 melanoma,> 100 µM
same,GI50,SK-OV-3 ovarian,> 100 µM
same,TGI,SK-OV-3 ovarian,> 100 µM
same,GI50,SN12C renal,> 100 µM
same,TGI,SN12C renal,> 100 µM
same,GI50,SNB-19 CNS,> 100 µM
same,TGI,SNB-19 CNS,> 100 µM
same,GI50,SR leukemia,85.9 µM
same,TGI,SR leukemia,> 100 µM
same,GI50,SW-620 colon,> 100 µM
same,TGI,SW-620 colon,> 100 µM
same,GI50,T-47D breast,> 100 µM
same,TGI,T-47D breast,> 100 µM
same,GI50,TK-10 renal,74.2 µM
same,TGI,TK-10 renal,> 100 µM
same,GI50,U251 CNS,> 100 µM
same,TGI,U251 CNS,> 100 µM
same,GI50,UACC-257 melanoma,> 100 µM
same,TGI,UACC-257 melanoma,> 100 µM
same,GI50,UACC-62 melanoma,> 100 µM
same,TGI,UACC-62 melanoma,> 100 µM
same,GI50,UO-31 renal,> 100 µM
same,TGI,UO-31 renal,> 100 µM
